# Measurements as given in patent publication US9464064B2, “HCV helicase inhibitors and methods of use thereof” (University of Kansas, priority 2011, dated 2016).
# Biological target: MBHA DNA substrate
# Assay: Fluorescent intercalation displacement (FID) assay, ethidium bromide
# Format: binding
# Settings: FID; mean ± SD; read-out: DNA Binding (Ethidium Bromide) EC50
# Method: Fluorescent intercalation displacement (FID) assays (Boger, et al. (2001) J. Am. Chem. Soc. 123:5878-5891) were used to measure the ability of a compound to bind the MBHA substrate. The concentration at which half the ethidium bromide is displaced (EC50) was determined using the different conditions as above to more closely mimic the conditions of a standard helicase assay. Each 100 μL reaction contained 25 mM MOPS pH 6.5, 0.16 μM MBHA DNA substrate (lacking Cy5 and IBQ-RQ modifications), 2 μM ethidium bromide, and various concentrations of test compound. Fluorescence of ethidium bromide was monitored using excitation and emission wavelengths of 545 and 595 nm, respectively, on a Cary Eclipse fluorescence spectrophotometer in white 96-well plates. The amount of ethidium bromide-DNA complex fluorescence was used to estimate the ability of compounds to bind DNA, and therefore displace the fluorescent intercalator (ethidium bromide).
# In Equation 4, Fc is the fluorescence in the presence of the compound, F(−) is the average DMSO-only negative controls, and F(+) is the average positive controls (100 μM berenil). EC50 values were from a normalized dose-response curve.
# These twelve hits were then subjected to a counterscreen designed to independently identify DNA binding compounds using a modified fluorescent intercalator displacement (FID) assay (Boger, et al. (2001) supra). The FID assay used ethidium bromide to judge a compound's ability to bind DNA and was based on the assumption that a DNA binding compound would displace a fluorescent DNA intercalating agent, leading to an observable decrease in observed fluorescence. Compounds were tested at 1.5 μM in the presence of the 25 base pair substrate used in the helicase assays.
row,SMILES,EC50 [µM]
1,"Cc1ccc2nc(-c3ccc4nc(-c5ccc6nc(-c7ccc(N)cc7)sc6c5)sc4c3)sc2c1S(=O)(=O)O [Compound P3, 2″-(4-aminophenyl)-6-methyl-[2,6′:2′,6″-terbenzo[d]thiazole]-7-sulfonic acid]",55 ± 20
2,"Cc1ccc2nc(-c3ccc4nc(-c5ccc6nc(-c7ccc8nc(-c9ccc(N)cc9)sc8c7)sc6c5)sc4c3)sc2c1S(=O)(=O)O [Compound P4, 2′″-(4-aminophenyl)-6-methyl-[2,6′:2″,6′″-quaterbenzo[d]thiazole]-7-sulfonic acid]",15 ± 3
3,"Cc1ccc2nc(-c3ccc4nc(-c5ccc(N)cc5)sc4c3)sc2c1S(=O)(=O)O [Compound P2a, 2′-(4-aminophenyl)-6-methyl-[2,6′-bibenzo[d]thiazole]-7-sulfonic acid]",> 100

# Biological target: T1, NS3h_2a(JFH1) (Hepatitis C virus genotype 2a, UniProt Q99IB8)
# T1 construct: truncated C-terminally His-tagged NS3 proteins lacking the N-terminal protease, called NS3h; His-tag (C); made in house
# Assay: NS3 intrinsic protein fluorescence titration
# Format: binding, hepatitis C virus genotype 2a(JFH1)
# Settings: corrected for inner filter effects
# Method: Compound effects on NS3 intrinsic protein fluorescence were determined by adding aliquots of each compound (1 μl of a 1 mM solution in DMSO) sequentially to 50, 100, or 200 nM of NS3h_2a(JFH1), or 100 nM scNS4A-NS3 dissolved in 2 ml of 25 mM MOPS pH 7, 1.25 mM MgCl2, 0.01% (v/v) TWEEN 20 and 0.3 mM DTT. The titrations were performed in a stirred, temperature-controlled 1 cm cuvette at 23° C. in a Cary Eclipse Fluorescence Spectrophotometer (Agilent Technologies). Intrinsic protein fluorescence was recorded by exciting the sample at 280 nm and reading emission at 340 nm. Excitation and emission slit widths were set to 5 and 10 nm, respectively. All raw fluorescence data were corrected for sample dilution and inner filter effects using Equation 5: Fc=Fobs(V0+Vi)/V0*10^(Aex+Aem/2) (Equation 5) where Fc is corrected fluorescence, Fobs is observed fluorescence, V0 is initial sample volume, Vi is total volume of titrant added, Aex is the absorbance of the solution at the excitation wavelength (280 nm), and Aem is the absorbance of the solution at the emission wavelength (340 nm). Absorbance was calculated at each point in the titrations from extinction coefficients for each compound in titration buffer, which were calculated at 280 nm and 340 nm using four different compound concentrations. […] Fc=F0−(ΔFmax*[…]/(Kd^n+(C)^n)) (Equation 6) In equation 6, […], F0 is fluorescence in the absence of compound, ΔFmax is the maximum change in fluorescence, n is the Hill coefficient, and C is compound concentration.
# To examine the direct interaction of the compounds with NS3, the effect of a select few compound on NS3 intrinsic protein fluorescence was analyzed. This technique has been widely used to monitor the interaction of NS3 with its nucleic acid ligands (Lam, et al. (2004) Nucleic Acids Res. 32:4060-4070; Levin & Patel (2002) J. Biol. Chem. 277:29377-29385; Preugschat, et al. (1996) J. Biol. Chem. 271:24449-24457) and other small molecules (Belon, et al. (2010) supra). […] Of note is the fact that, unlike compounds that simply compete for the nucleic acid binding site (e.g., (BIP)2B; Belon, et al. (2010) supra), the primuline derivatives bound NS3h cooperatively as evident from their sigmoid binding isotherms and Hill coefficients greater than one (Equation 6). When compounds were tested against scNS4A-NS3, binding again was detected and apparent affinity for the full-length complex was about 5 times higher than it was for NS3h.
# T1 sequence (Q99IB8 1196-1661): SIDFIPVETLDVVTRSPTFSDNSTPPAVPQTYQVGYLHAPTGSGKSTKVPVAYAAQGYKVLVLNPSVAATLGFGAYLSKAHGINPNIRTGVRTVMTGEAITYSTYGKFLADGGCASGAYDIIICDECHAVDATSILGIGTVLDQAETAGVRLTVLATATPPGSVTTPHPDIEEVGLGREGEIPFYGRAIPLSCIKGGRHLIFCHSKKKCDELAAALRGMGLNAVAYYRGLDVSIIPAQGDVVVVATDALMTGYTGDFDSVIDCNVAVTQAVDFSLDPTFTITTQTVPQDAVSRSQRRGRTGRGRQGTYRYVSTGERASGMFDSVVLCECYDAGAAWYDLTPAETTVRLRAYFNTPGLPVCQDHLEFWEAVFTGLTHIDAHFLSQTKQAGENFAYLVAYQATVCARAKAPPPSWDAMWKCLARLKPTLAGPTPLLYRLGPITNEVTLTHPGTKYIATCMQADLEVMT
row,SMILES,interaction with NS3 (intrinsic protein fluorescence)
1,"Cc1ccc2nc(-c3ccc4nc(-c5ccc(NC(=O)c6ccc(C(F)(F)F)cc6)cc5)sc4c3)sc2c1S(=O)(=O)O [Compound 12, 6-methyl-2′-(4-(4-(trifluoromethyl)benzamido)phenyl)-[2,6′-bibenzo[d]thiazole]-7-sulfonic acid]",clear interaction
2,"Cc1ccc2nc(-c3ccc4nc(-c5ccc(NC(=O)c6ccc7ccccc7c6)cc5)sc4c3)sc2c1S(=O)(=O)O [Compound 33, 2′-(4-(2-naphthamido)phenyl)-6-methyl-[2,6′-bibenzo[d]thiazole]-7-sulfonic acid]",clear interaction
3,"Cc1ccc2nc(-c3ccc4nc(-c5ccc(NC(=O)c6cccc(Cl)c6)cc5)sc4c3)sc2c1S(=O)(=O)O [Compound 17, 2′-(4-(3-chlorobenzamido)phenyl)-6-methyl-[2,6′-bibenzo[d]thiazole]-7-sulfonic acid]",clear interaction
4,"Cc1ccc2nc(-c3ccc4nc(-c5ccc(NC(=O)c6cc(C(F)(F)F)cc(C(F)(F)F)c6)cc5)sc4c3)sc2c1S(=O)(=O)O [Compound 24, 2′-(4-(3,5-bis(trifluoromethyl)benzamido)phenyl)-6-methyl-[2,6′-bibenzo[d]thiazole]-7-sulfonic acid]",clear interaction
